Assay results: PubChem BioAssay AID242 (DTP/NCI, 2004)
Where “and” joins values, the source holds several entries; their conditions need not be identical. Identical values can stand only once. Toxic doses and inconclusive results are not listed. Rule for the calls: active = survival T/C of 150% or more; inactive = T/C below 125% in these data.

Test system: BDF1 mice, Lymphoma 8 ip, survival T/C
Experiment: NCI In Vivo Anticancer Drug Screen. Data for tumor model Lymphoma 8 (intraperitoneal) in B6D2F1 (BDF1) mice
Conditions: higher = longer survival
Description: The antitumor activity of compounds was measured in mice bearing transplantable tumors. Survival or tumor size were measured and the results are expressed as the measurement made in the treated group (T) divided by the measurement made in the vehicle treated control group (C). The tumor model used in this assay is Lymphoma 8 (intraperitoneal) in B6D2F1 (BDF1) mice

[1] = endpoint: survival time, mean or median, dose: 25.0 mg/kg/injection, schedule: Q01DX010 (ip), vehicle: saline
[2] = endpoint: survival time, mean or median, dose: 50.0 mg/kg/injection, schedule: Q01DX010 (ip), vehicle: saline
[3] = endpoint: survival time, mean or median, dose: 31.3 mg/kg/injection, schedule: Q01DX010 (ip), vehicle: saline
[4] = endpoint: survival time, mean or median, dose: 20.0 mg/kg/injection, schedule: Q01DX010 (ip), vehicle: saline

Measured: T/C

COc1cc(-c2ccc(Nc3ccccc3C(=O)O)c(OC)c2)ccc1Nc1ccccc1C(=O)O
inactive: endpoint: survival time, mean or median, dose: 25.0 mg/kg/injection, schedule: Q01DX015 (ip), vehicle: carboxymethylcellulose (CMC) 101 % of control | endpoint: survival time, mean or median, dose: 50.0 mg/kg/injection, schedule: Q01DX015 (ip), vehicle: carboxymethylcellulose (CMC) 89 % of control | endpoint: survival time, mean or median, dose: 100.0 mg/kg/injection, schedule: Q01DX015 (ip), vehicle: carboxymethylcellulose (CMC) 96 % of control | endpoint: survival time, mean or median, dose: 200.0 mg/kg/injection, schedule: Q01DX015 (ip), vehicle: carboxymethylcellulose (CMC) 90 % of control

CS(=O)(=O)OCCCCOS(C)(=O)=O
inactive: endpoint: survival time, mean or median, dose: 6.25 mg/kg/injection, schedule: Q01DX010 (ip), vehicle: saline 100 % of control | endpoint: survival time, mean or median, dose: 12.5 mg/kg/injection, schedule: Q01DX010 (ip), vehicle: saline 105 % of control | [1] 100 % of control | [2] 105 % of control

NC(=O)/C=C/NC(=O)/C=N\O
inactive: endpoint: survival time, mean or median, dose: 50.0 mg/kg/injection, schedule: Q01DX008 (ip), vehicle: saline 92 % of control | endpoint: survival time, mean or median, dose: 200.0 mg/kg/injection, schedule: Q01DX008 (ip), vehicle: saline 88 % of control

CC(=O)Nc1ccc2nc3ccc(NC(C)=O)cc3[n+](-c3ccccc3)c2c1
inactive: [1] 107 % of control | [2] 89 % of control | endpoint: survival time, mean or median, dose: 100.0 mg/kg/injection, schedule: Q01DX010 (ip), vehicle: saline 92 % of control

CC(C)CNS(=O)(=O)c1ncnc2nc[nH]c12
inactive: endpoint: survival time, mean or median, dose: 18.8 mg/kg/injection, schedule: Q01DX015 (ip), vehicle: carboxymethylcellulose (CMC) 114 % of control | endpoint: survival time, mean or median, dose: 37.5 mg/kg/injection, schedule: Q01DX015 (ip), vehicle: carboxymethylcellulose (CMC) 99 % of control | endpoint: survival time, mean or median, dose: 75.0 mg/kg/injection, schedule: Q01DX015 (ip), vehicle: carboxymethylcellulose (CMC) 96 % of control

CCN(CCNc1ccc(C)c2sc3cc(Cl)ccc3c(=O)c12)CC(C)O (stereo not given)
inactive: endpoint: survival time, mean or median, dose: 7.8 mg/kg/injection, schedule: Q01DX010 (ip), vehicle: saline 100 % of control | endpoint: survival time, mean or median, dose: 15.6 mg/kg/injection, schedule: Q01DX010 (ip), vehicle: saline 100 % of control | [3] 96 % of control

CC(CCC(C)OS(C)(=O)=O)OS(C)(=O)=O (stereo not given)
inactive: endpoint: survival time, mean or median, dose: 2.0 mg/kg/injection, schedule: Q01DX010 (ip), vehicle: saline 92 % of control and 100 % of control | endpoint: survival time, mean or median, dose: 4.0 mg/kg/injection, schedule: Q01DX010 (ip), vehicle: saline 103 % of control and 104 % of control | endpoint: survival time, mean or median, dose: 8.0 mg/kg/injection, schedule: Q01DX010 (ip), vehicle: saline 103 % of control and 104 % of control | endpoint: survival time, mean or median, dose: 16.0 mg/kg/injection, schedule: Q01DX010 (ip), vehicle: saline 100 % of control and 116 % of control

O=C(O)c1[nH]c(=O)[nH]c(=O)c1F
inactive: endpoint: survival time, mean or median, dose: 12.0 mg/kg/injection, schedule: Q01DX015 (ip), vehicle: carboxymethylcellulose (CMC) 99 % of control | endpoint: survival time, mean or median, dose: 12.5 mg/kg/injection, schedule: Q01DX015 (ip), vehicle: carboxymethylcellulose (CMC) 98 % of control

OCC1OC(n2cnc3c(=S)nc[nH]c32)C(O)C1O (stereo not given)
inactive: [4] 104 % of control and 112 % of control | endpoint: survival time, mean or median, dose: 40.0 mg/kg/injection, schedule: Q01DX010 (ip), vehicle: saline 100 % of control and 109 % of control and 112 % of control | endpoint: survival time, mean or median, dose: 80.0 mg/kg/injection, schedule: Q01DX010 (ip), vehicle: saline 105 % of control and 118 % of control and 121 % of control | endpoint: survival time, mean or median, dose: 160.0 mg/kg/injection, schedule: Q01DX010 (ip), vehicle: saline 93 % of control and 118 % of control

CN(Cc1cnc2nc(N)nc(N)c2n1)c1ccc(C(=O)N[C@@H](CCC(=O)O)C(=O)O)cc1
inactive: endpoint: median survival time, dose: 1.0 mg/kg/injection, schedule: Q01DX009 (ip), vehicle: sodium bicarbonate 118 % of control | endpoint: median survival time, dose: 2.0 mg/kg/injection, schedule: Q01DX009 (ip), vehicle: sodium bicarbonate 93 % of control

CCCCNc1ncnc2c1cnn2C
inactive: [3] 87 % of control and 95 % of control and 100 % of control | endpoint: survival time, mean or median, dose: 62.5 mg/kg/injection, schedule: Q01DX010 (ip), vehicle: saline 86 % of control and 97 % of control and 100 % of control | endpoint: survival time, mean or median, dose: 125.0 mg/kg/injection, schedule: Q01DX010 (ip), vehicle: saline 90 % of control

Nc1nc(=S)c2[nH]cnc2[nH]1
inactive: endpoint: survival time, mean or median, dose: 1.25 mg/kg/injection, schedule: Q01DX010 (ip), vehicle: other 120 % of control | endpoint: survival time, mean or median, dose: 5.0 mg/kg/injection, schedule: Q01DX010 (ip), vehicle: other 115 % of control | endpoint: survival time, mean or median, dose: 10.0 mg/kg/injection, schedule: Q01DX010 (ip), vehicle: other 110 % of control

N=C(N)SCc1c2ccccc2c(CSC(=N)N)c2ccccc12
inactive: endpoint: survival time, mean or median, dose: 2.5 mg/kg/injection, schedule: Q01DX010 (ip), vehicle: saline 106 % of control and 121 % of control | endpoint: survival time, mean or median, dose: 5.0 mg/kg/injection, schedule: Q01DX010 (ip), vehicle: saline 113 % of control | [4] 113 % of control and 114 % of control
